Test results from patent publication US20030203975A1, “Anti-cancer agents” (priority 1998, published 2003).

How the values were obtained:
Topoisomerase I = target: T1, Topoisomerase I (Homo sapiens, UniProt P11387); assay: Topo I cleavage assay; assay type: biochemical; details: for TopI Cleave: unit not given, compound at 1, 10, 25 and 50 μM in protocol
T1 sequence (P11387 1-765): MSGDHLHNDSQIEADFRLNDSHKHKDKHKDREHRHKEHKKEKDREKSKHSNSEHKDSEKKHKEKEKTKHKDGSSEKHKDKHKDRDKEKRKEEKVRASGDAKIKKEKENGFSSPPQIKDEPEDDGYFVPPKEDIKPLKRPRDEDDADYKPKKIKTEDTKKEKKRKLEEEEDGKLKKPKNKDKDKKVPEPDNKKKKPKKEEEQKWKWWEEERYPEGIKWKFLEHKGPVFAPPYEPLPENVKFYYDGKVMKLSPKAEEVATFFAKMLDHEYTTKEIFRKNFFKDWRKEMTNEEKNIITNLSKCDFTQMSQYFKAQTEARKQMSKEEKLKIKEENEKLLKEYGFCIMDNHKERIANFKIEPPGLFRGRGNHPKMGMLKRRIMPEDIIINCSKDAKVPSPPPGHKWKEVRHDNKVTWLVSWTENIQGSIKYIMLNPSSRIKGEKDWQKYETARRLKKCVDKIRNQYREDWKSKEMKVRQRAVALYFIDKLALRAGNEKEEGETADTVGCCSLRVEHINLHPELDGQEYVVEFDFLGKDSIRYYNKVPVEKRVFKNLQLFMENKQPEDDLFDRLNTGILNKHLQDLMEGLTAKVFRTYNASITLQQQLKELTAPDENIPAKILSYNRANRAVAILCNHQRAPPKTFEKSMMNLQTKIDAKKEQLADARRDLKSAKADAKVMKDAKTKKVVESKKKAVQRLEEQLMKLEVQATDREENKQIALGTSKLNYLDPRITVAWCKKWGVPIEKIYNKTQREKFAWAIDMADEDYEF

Topoisomerase IIα = Topoisomerase IIα (Homo sapiens, UniProt P11388); assay: Topo II decatenation assay; assay type: biochemical; set-up: key: ‘—’ = Not active; details: unit not given; kDNA substrate; compound at 1, 10, 25 and 50 μM in protocol
Experimental: Topisomerase Decatenation Assay.
This method uses catenated DNA substrate prepared from the kinetoplast of the insect trypanosome Crithidia fasciculata. Upon incubation with topo II, which engages DNA in a double stranded breakage-reunion cycle, DNA minicircles are released. Addition of topo-inhibiting drugs may prevent decatenation.
Topo II Decatenation Assay Protocol
This assay is the same as the Topo II Relaxation assay except that the pBR 322 Plasmid DNA is replaced with kDNA.
Results are included in Table 3 below

Chain of Topoisomerase IIα (P11388 whole entry): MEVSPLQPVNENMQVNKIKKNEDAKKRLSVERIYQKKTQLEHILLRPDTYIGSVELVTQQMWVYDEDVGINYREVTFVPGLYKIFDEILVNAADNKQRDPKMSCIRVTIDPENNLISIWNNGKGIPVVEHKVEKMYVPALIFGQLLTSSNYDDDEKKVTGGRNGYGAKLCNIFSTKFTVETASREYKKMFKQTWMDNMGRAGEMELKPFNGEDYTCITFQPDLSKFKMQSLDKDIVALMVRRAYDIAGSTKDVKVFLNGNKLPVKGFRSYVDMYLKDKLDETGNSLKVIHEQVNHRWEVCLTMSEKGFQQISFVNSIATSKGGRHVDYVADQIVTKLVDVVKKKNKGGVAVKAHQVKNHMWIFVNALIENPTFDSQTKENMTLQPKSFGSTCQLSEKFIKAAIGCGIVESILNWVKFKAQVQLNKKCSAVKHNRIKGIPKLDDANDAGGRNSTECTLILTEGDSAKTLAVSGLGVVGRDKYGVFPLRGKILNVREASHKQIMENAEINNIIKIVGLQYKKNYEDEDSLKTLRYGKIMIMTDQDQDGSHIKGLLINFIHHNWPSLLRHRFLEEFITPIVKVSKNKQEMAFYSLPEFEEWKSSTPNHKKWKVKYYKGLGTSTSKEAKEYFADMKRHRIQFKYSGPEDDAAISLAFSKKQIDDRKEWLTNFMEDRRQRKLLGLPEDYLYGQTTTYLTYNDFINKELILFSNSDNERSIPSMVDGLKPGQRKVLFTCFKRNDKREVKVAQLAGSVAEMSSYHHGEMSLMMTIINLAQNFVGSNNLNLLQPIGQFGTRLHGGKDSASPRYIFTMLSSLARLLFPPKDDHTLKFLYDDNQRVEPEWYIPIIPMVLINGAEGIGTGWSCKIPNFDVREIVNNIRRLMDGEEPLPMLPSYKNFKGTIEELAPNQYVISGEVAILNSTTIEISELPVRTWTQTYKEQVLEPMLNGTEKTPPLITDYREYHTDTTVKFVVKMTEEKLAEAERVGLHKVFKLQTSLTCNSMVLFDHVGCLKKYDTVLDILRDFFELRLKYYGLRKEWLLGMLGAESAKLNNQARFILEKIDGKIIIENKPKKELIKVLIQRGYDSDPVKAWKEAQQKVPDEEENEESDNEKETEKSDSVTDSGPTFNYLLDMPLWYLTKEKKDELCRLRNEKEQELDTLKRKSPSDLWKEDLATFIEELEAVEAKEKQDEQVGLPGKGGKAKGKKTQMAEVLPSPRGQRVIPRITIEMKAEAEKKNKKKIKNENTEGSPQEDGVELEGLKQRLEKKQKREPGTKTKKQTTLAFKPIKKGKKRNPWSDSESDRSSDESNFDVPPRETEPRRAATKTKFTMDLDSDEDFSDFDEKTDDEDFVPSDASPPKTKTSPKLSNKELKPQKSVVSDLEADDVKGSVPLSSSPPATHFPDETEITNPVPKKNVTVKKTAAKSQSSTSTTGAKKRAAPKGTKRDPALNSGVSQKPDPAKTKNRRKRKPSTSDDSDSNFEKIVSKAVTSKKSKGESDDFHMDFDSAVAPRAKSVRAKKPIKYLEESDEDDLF

`C[C@H](N)C(=O)OCCCCNc1cccc2c1C(=O)c1ccccc1C2=O.O=C(O)C(F)(F)F` [Example 43, 1-[4-(L-alanyloxy)butylamino]anthracene-9,10-dione trifluoroacetate] was tested, and the “nicked DNA” value (Topoisomerase I; at 100 μM) was 20%, the “TopI Cleave” value (Topoisomerase I) was 100 and the “TopIIα Decat.” value (Topoisomerase IIα) was “—”.

With `C[C@@H](N)C(=O)OCCCCNc1cccc2c1C(=O)c1ccccc1C2=O.O=C(O)C(F)(F)F` [Example 45, 1-[4-(D-alanyloxy)butylamino]anthracene-9,10-dione trifluoroacetate] the “TopI Cleave” value (Topoisomerase I) was 300 and the “TopIIα Decat.” value (Topoisomerase IIα) was “—”.
